Measurements reported in patent US20210323918A1, “COMPOSITIONS AND METHODS FOR SUPPRESSING AND/OR TREATING A GROWTH RELATED DISEASE AND/OR A CLINICAL CONDITION THEREOF” (CK Biotech Inc., priority 2018, published 2021).

How the values were obtained:
[1] = test system: Tibial organ cultures (E15.5); assay: Tibial organ culture (ex vivo); set-up: species or system mice; conditions: 100 nM for 6 days
Method: Tibial organ culture. Tibiae were isolated from embryonic day 15.5 (e15.5) mice and cultured for 6 days in phenol red-free a-MEM (Gibco) containing ascorbic acid, β-glycerophosphate, BSA, L-glutamine, and penicillin-streptomycin, as previously described (Gillespie et al, 2011). After dissection, tibiae were incubated in medium overnight and then treated with E2 (Sigma-Aldrich). Media and reagents were changed every 48 hours. Tibial images were captured using a SMZ-745T microscope (Nikon). Tibial length was measured prior to treatment and after 6 days in culture. The samples were then prepared for paraffin embedding, sectioned, and analyzed by H&E and IHC staining.

[2] = Toxicity observation during 10 weeks of treatment in mice; format: in vivo
Method: Animals. Cxxc5^−/− mice were established in a previous study. See e.g., Kim H. Y. et al. (2015), CXXC5 is a negative feedback regulator of the Wnt/beta-catenin pathway involved in osteoblast differentiation. CELL DEATH DIFFER 22: 912-920. To manipulate growth plate senescence by estrogen, 3-week-old […] Cxxc5^−/− male mice received weekly intramuscular (i.m.) injections of either 70 μg/kg estradiol (E2) cypionate (Sigma-Aldrich) or vehicle (cottonseed oil) for 3 weeks. To investigate the effects of KY19382 treatment on longitudinal bone growth, C57BL/6 male mice were purchased from KOATECH (Gyeonggido, Korea). KY19382 (0.1 ing/kg) was administered daily by intraperitoneal (i.p.) injection to 3- and 7-week-old mice for 2 weeks or to 3-week-old mice for 10 weeks. For BrdU labeling experiments, mice were i.p. injected with 50 mg/kg BrdU (Sigma-Aldrich) before 24 hours to sacrifice. […]
Radiographic and histochemical analyses. […] For fluorescence staining, the sections were incubated with primary antibody at 4° C. overnight, followed by incubation with anti-mouse Alexa Fluor 488 (ThermoFisher Scientific, A11008; 1:200) or anti-rabbit Alex Fluor 555 (ThermoFisher Scientific, A21428; 1:200) secondary antibodies at room temperature for 1 hour. […]

GSK3β (human) = GSK3β (human) (Homo sapiens, UniProt P49841); assay: GSK3β kinase assay; format: biochemical; conditions: from dose-response curve, FIG. 4C; read-out: IC50, in vitro GSK3β activity
Method: GSK3β kinase assay. GSK3β (human) was incubated with 8 mM MOPS (pH 7.0), 0.2 mM EDTA, 20 μM […](p) EDEEE (phospho-GS2 peptide) (SEQ ID NO. 37), 10 mM Mg acetate, and [γ-33P-ATP] (specific activity approx. 500 cpm/pmol, concentration as required). The reaction was initiated by the addition of the Mg-ATP mixture. After incubation for 40 minutes at room temperature, the reaction was stopped by addition of 3% phosphoric acid solution. 10 μl of the reaction was then spatted onto a P30 filtermat and washed three times for 5 minutes in 50 mM phosphoric acid and once in methanol prior to drying and scintillation counting.

[3] = test system: TOPFlash Wnt reporter activity; assay: TOPFlash Wnt reporter assay in HEK293-TOP cells; format: cell-based; conditions: 18 hours, FIG. 4D
Method: Reporter assay. HEK293-TOP cells were seeded into each well of a 24-well plate. The cells were treated with individual compounds at indicated concentration and cultured for 18 hours. The cells were then harvested and lysed in 60 μl of Reporter Lysis Buffer (Promega, Madison, Wis.) according to the manufacturer's instructions. After centrifugation, 20 μl of the supernatant was used to measure luciferase activity. Relative luciferase activities were normalized to that of the DMSO-treated control.

GSK3β (human), sequence (P49841 whole entry): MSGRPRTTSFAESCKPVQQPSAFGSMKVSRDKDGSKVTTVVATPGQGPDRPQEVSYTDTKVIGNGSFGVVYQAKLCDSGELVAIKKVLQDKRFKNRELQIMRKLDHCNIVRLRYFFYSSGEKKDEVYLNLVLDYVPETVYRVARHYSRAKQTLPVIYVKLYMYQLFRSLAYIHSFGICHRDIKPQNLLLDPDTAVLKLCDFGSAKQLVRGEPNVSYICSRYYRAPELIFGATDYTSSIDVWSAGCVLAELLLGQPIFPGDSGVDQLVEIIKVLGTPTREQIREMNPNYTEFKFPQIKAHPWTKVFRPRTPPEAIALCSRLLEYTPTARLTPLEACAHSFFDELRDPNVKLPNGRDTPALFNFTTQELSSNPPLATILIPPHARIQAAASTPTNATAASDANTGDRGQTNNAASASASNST

Molecule | tibial length [1] | histological abnormalities in articular cartilage and liver tissues ([2]; 0.1 mg/kg daily for 10 weeks) | weight during treatment ([2]; 0.1 mg/kg daily, 10 weeks of treatment, vs vehicle) | IC50 (GSK3β (human)) [µM] | TOPFlash Wnt reporter activity [3]
17β-estradiol [Compound E2] | reduced |  |  |  | 
CO/N=C1/C(=C2/C(=O)Nc3cc(Cl)c(Cl)cc32)Nc2ccccc21 [KY19382, 5,6-dichloroindirubin-3′-methoxime] |  | no histological abnormalities | no difference | 0.01 | strong enhancement
